One assay deals with T1, hA2AAR (Homo sapiens, UniProt P29274).
T1 construct: expressed in transfected cells
Kind of assay: Flow cytometry saturation binding of fluorescent antagonists in whole cells. In kind it is cell-based. As to conditions: hA2AAR-expressing HEK-293 cells; for nonspecific binding: result in words. As to the method:
Compounds 11 and 12 were tested as fluorescent tracers for flow cytometry of HEK-293 cells expressing the hA2AAR (Fig. 4A). […] Thus, 11 tended to bind non-specifically to hydrophobic membranes by undetermined mechanisms. […]. For inhibition studies, the cells were co-incubated for one hour prior to flow cytometry with fluorescent probe 12 (10 nM) and a test antagonist. […]
Fig. 4 Saturation of fluorescent antagonists 11 (A) and 12 (B) in hA2AAR-expressing HEK-293 cells measured using flow cytometry following a 1 h incubation at 37 °C. Non-specific binding was determined with 10 μM 3. Results are expressed as the mean ± SEM. The Kd value calculated from Fig. 4B is listed in the text.
Cell culture for membrane binding assays and flow cytometry: HEK-293 cells stably expressing the A2AAR were grown in Dulbecco’s Modified Eagle’s Medium (DMEM) with 10% FBS, 100 units/ml penicillin, […] streptomycin, 2 mM L-glutamine and 0.500 mg/mL G418 Sulfate (Geneticin). Cells were maintained in a humidified atmosphere and sterile incubation conditions held at 37 °C and 5% CO2 (g). A day prior to the experiment, cells were plated on a 96 -well clear and flat bottom plate at 80 -90% confluency in 100 µL of medium. […]
Fluorescent binding studies: All binding studies were done in triplicate. For saturation binding studies, cells were treated with 50 µL of 11 (MRS 7396) or 12 (MRS 7416), to achieve a final concentration from 0.19 to 400 nM, and 50 µL of Tris-HCl buffer containing 10 mM MgCl2. Non-specific binding was determined with SCH442416 3 (final concentration of 10 µM, in Tris-HCl buffer). For displacement experiments, cells were incubated simultaneously with 50 µL of 40 nM 11 or 12 (final concentration 10 nM) and 50 µL of the non-labeled displacing ligand at increasing concentrations. The total binding was measured in the absence of a displacing ligand, and non-specific binding was determined with 10 µM 3.
After 1 h at 37 °C (for both the saturation and displacement experiments), the medium was removed and the cells were carefully washed two times with 150 µL of ice-cold PBS (not containing Mg+2 or Ca+2).
The cells were treated with 40 µL of Corning Cellstripper (Mediatech, Manassas, VA) per well and then incubated at 37 °C for 10 min. To each well was subsequently added 160 µL of PBS (not containing Mg+2 or Ca+2), and the cell fluorescence was analyzed with a BD FACSCalibur flow cytometer (Becton, Dickinson and Co., Franklin Lakes, NJ) with excitation at 635 nm (red diode laser, for 11) or 488 nm (blue laser, for 12) in conjunction with the software from BD Bioscience PlateManager and CellQuest. […]
2. Bradford, M. M. A rapid and sensitive method for the quantitation of microgram quantities of protein utilizing the principle of protein -dye binding. […]
(A flow cytometer gives signals particle by particle.)

In the next assay the target is T2, A3AR (Homo sapiens, UniProt P0DMS8).
T2 construct: expressed in transfected cells
T2 sequence (P0DMS8 1-318): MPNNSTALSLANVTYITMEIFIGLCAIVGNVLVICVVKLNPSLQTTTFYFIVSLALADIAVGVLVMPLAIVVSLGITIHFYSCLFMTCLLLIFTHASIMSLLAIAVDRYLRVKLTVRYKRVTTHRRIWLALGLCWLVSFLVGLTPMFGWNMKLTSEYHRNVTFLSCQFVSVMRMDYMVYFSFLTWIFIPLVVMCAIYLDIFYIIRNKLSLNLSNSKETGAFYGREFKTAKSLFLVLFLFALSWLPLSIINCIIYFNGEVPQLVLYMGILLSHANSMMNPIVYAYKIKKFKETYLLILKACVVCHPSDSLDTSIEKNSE
Nature of the assay: Competition radioligand binding, hA3AR ([125I]I-AB-MECA). The conditions noted are these: [125I]I-AB-MECA 0.2 nM; for inhibition at 10 µM: percent inhibition at 10 μM, read-out: % inhib, A3. As to the method:
The affinity of the amine congeners and other antagonists was measured using standard radioligand binding assays for hA1, A2A and A3ARs (Table 1).[1],[13],[14],[22] Membranes of human embryonic kidney (HEK)293 cells expressing the AR of interest were used in the assay. Primary amine congeners 6a–6d containing spacers of 2–5 methylenes were similar in terms of hA2AAR affinity (Ki 6–9 nM), with the butylamino congener 6c displaying the highest A2AAR selectivity in the series. The affinity of this compound for the hA3AR was determined to be 6.0 μM, with only slightly higher hA1AR affinity. Homologation to 6 methylenes in compound 6e lowered A2AAR affinity. […] No dependence of the affinity on the chain length was evident when comparing AlexaFluor647 conjugates 9 and 10. […]
Radioligand binding assays: Cell membranes were prepared as reported.1
Binding assays were carried out using standard radioligands and membrane preparations from HEK-293 cells stably expressing the human (h) A1, A2A or A3ARs or mouse (m) A1, A2A or A3ARs. The radioligands used were: A1AR, [3H]8-cyclopentyl-1,3-dipropylxanthine 14; A2AAR, [3H]2; A3AR, [125I]N6-(4-amino-3-iodobenzyl)adenosine-5′-N-methyluronamide 16. The radioligand for archival A2AAR affinity data presented in Table 1 was [3H]2-[p-(2-carboxyethyl)phenyl-ethylamino]-5′-N-ethylcarboxamidoadenosine 15. Nonspecific binding was determined using 10 µM 8-[4-[[[[(2-aminoethyl)amino]carbonyl]methyl]oxy]phenyl]-1,3-dipropylxanthine 17 (A1AR and A2AAR) or 10 µM adenosine-5′-N-ethyluronamide 18 (A3AR). HEK-293 cells expressing recombinant mA1, A2A, or A3AR […]
Protein was determined as reported.2 In all the binding experiments, IC50 values and Ki values were calculated using GraphPad Prism software (San Diego, CA). Values are expressed as mean±SEM. […]
Med. Chem. Comm., 2015, 6:555-563.
2. Bradford, M. M. A rapid and sensitive method for the quantitation of microgram quantities of protein utilizing the principle of protein -dye binding. Anal. Biochem. 1976, 72, 248-254.

In general, Kd refers to the free concentration of one partner at which half of the binding sites on the other are occupied at equilibrium, for simple one-to-one binding. As a reminder, the Ki is the equilibrium dissociation constant of an inhibitor or competing ligand from its target.

T1 sequence (P29274 whole entry): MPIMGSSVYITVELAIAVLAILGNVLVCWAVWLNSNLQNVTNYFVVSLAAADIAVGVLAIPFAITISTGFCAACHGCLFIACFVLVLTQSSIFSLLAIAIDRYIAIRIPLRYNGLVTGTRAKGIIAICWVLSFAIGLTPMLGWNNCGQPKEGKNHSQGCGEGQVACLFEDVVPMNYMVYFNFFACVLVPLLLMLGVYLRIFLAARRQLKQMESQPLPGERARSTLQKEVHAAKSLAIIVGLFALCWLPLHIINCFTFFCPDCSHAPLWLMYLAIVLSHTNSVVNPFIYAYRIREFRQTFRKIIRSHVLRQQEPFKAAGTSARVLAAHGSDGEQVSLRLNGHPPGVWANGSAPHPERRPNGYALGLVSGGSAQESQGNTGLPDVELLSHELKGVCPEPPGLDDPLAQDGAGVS

Turning to `Nc1nc2c(cnn2CCCc2ccc(OCC(=O)NCCCCNC(=O)CCCCCNC(=O)COc3ccc(/C=C/C4=[N+]5C(=Cc6ccc(-c7cccs7)n6[B-]5(F)F)C=C4)cc3)cc2)c2nc(-c3ccco3)nn12` [compound 11], on hA2AAR (1 h 37 °C, nonspecific with 10 μM 3), the “specific binding, % of the total” value is < 25%. Also, the nonspecific binding result on hA2AAR is given as “high nonspecific binding”. At A3AR, the inhibition at 10 µM was 33%.

`CCN(CC)CC.CCN(CC)CC.N=c1ccc2c(-c3ccc(C(=O)NCCCCNC(=O)COc4ccc(CCCn5ncc6c5nc(N)n5nc(-c7ccco7)nc65)cc4)cc3C(=O)O)c3ccc(N)c(S(=O)(=O)O)c3oc-2c1S(=O)(=O)O` [compound 12]: at hA2AAR (1 h 37 °C), the Kd amounted to 45.4 nM. In addition, the nonspecific binding entry at hA2AAR was “low nonspecific binding”. Moreover, on A3AR, the inhibition at 10 µM came out at 32%.

For the compound `N.Nc1nc2c(cnn2CCCc2ccc(OCc3ccc(S(=O)(=O)O)cc3)cc2)c2nc(-c3ccco3)nn12` [compound 13], the inhibitory constant (Ki) at A3AR (HEK-293 membranes, 1 h 25 °C, mean ± SEM, read-out: Affinity, Ki, A3) was 2660 ± 1250 nM.

The values above are taken from paper PMC5729930, “Bitopic fluorescent antagonists of the A2A adenosine receptor based on pyrazolo[4,3-e][1,2,4]triazolo[1,5-c]pyrimidin-5-amine functionalized congeners” (MedChemComm, 2017).
